Assay results reported in ChEMBL document CHEMBL5537169, “Structure-Activity Relationships and Discovery of (S)-6-Isopropyl-2-methoxy-3-(3-methoxypropoxy)-10-oxo-5,10-dihydro-6H-pyrido[1,2-h][1,7]naphthyridine-9-carboxylic Acid (AB-452), a Novel Orally Available HBV RNA Destabilizer” (J Med Chem, 2024).
Each block holds one compound with its values, some of them ahead of it.

Legend:
HepG2 2.2.15 = assay: Cytotoxicity against human HepG2.2.15 cells by Cell-titer Glo luminescent assay; format: functional
Hepatitis B virus = assay: Antiviral activity against HBV infected in human HepG2.2.15 cells assessed as inhibition of HBsAg level incubated for 6 days by microplate-based chemiluminescence immunoassay; format: functional, organism-based; conditions: HepG2 2.2.15, 144 h
[1] = Clearance in CD-1 mouse liver microsomes at 0.3 uM pre-incubated for 10 mins followed by NADPH addition incubated for 60 mins by LC-MS/MS analysis; format: ADME, Microsome; conditions: time 70 min, read-out: CLH
[2] = Tmax in Sprague-Dawley rat at 10 mg/kg,po measured at 0.083 to 24 hrs post administration by LC-MS/MS analysis; format: ADME, organism-based; conditions: in vivo, po, 10 mg/kg, time 0.083-24 hrs
[3] = Drug accumulation in Sprague-Dawley rat liver at 10 mg/kg,po measured at 0.083 to 24 hrs post administration by LC-MS/MS analysis; format: ADME, organism-based; conditions: in vivo, time 0.083-24 hrs
[4] = Apparent volume of distribution at steady state in CD-1 mouse at 10 mg/kg,po measured at 0.083 to 24 hrs post administration by LC-MS/MS analysis; format: ADME, organism-based; conditions: in vivo, time 0.083-24 hrs
[5] = Drug accumulation in CD-1 mouse liver at 10 mg/kg,po measured at 0.083 to 24 hrs post administration by LC-MS/MS analysis; format: ADME, organism-based; conditions: in vivo, time 0.083-24 hrs
[6] = Half life in CD-1 mouse at 10 mg/kg,po measured at 0.083 to 24 hrs post administration by LC-MS/MS analysis; format: ADME, organism-based; conditions: in vivo, time 0.083-24 hrs
[7] = Half life in Sprague-Dawley rat at 10 mg/kg,po measured at 0.083 to 24 hrs post administration by LC-MS/MS analysis; format: ADME, organism-based; conditions: in vivo, time 0.083-24 hrs; for t1/2: po, 10 mg/kg
[8] = Cmax in Sprague-Dawley rat at 10 mg/kg,po measured at 0.083 to 24 hrs post administration by LC-MS/MS analysis; format: ADME, organism-based; conditions: in vivo, time 0.083-24 hrs
[9] = Clearance in CD-1 mouse at 2 mg/kg,iv measured at 0.083 to 24 hrs post administration by LC-MS/MS analysis; format: ADME, organism-based; conditions: in vivo, time 0.083-24 hrs
[10] = AUCinfinity in Sprague-Dawley rat at 10 mg/kg,po measured at 0.083 to 24 hrs post administration by LC-MS/MS analysis; format: ADME, organism-based; conditions: in vivo, po, 10 mg/kg, time 0.083-24 hrs
[11] = AUCinfinity in CD-1 mouse at 10 mg/kg,po measured at 0.083 to 24 hrs post administration by LC-MS/MS analysis; format: ADME, organism-based; conditions: in vivo, time 0.083-24 hrs
[12] = Tmax in CD-1 mouse at 10 mg/kg,po measured at 0.083 to 24 hrs post administration by LC-MS/MS analysis; format: ADME, organism-based; conditions: in vivo, time 0.083-24 hrs
[13] = Apparent volume of distribution at steady state in Sprague-Dawley rat at 10 mg/kg,po measured at 0.083 to 24 hrs post administration by LC-MS/MS analysis; format: ADME, organism-based; conditions: in vivo, time 0.083-24 hrs
[14] = Oral bioavailability in CD-1 mouse at 10 mg/kg measured at 0.083 to 24 hrs by LC-MS/MS analysis; format: ADME, organism-based; conditions: in vivo, time 0.083-24 hrs
[15] = Cmax in CD-1 mouse at 10 mg/kg,po measured at 0.083 to 24 hrs post administration by LC-MS/MS analysis; format: ADME, organism-based; conditions: in vivo, time 0.083-24 hrs
[16] = Oral bioavailability in Sprague-Dawley rat at 10 mg/kg measured at 0.083 to 24 hrs by LC-MS/MS analysis; format: ADME, organism-based; conditions: in vivo, po, 10 mg/kg, time 0.083-24 hrs
[17] = Clearance in Sprague-Dawley rat at 2 mg/kg,iv measured at 0.083 to 24 hrs post administration by LC-MS/MS analysis; format: ADME, organism-based; conditions: in vivo, time 0.083-24 hrs
[18] = Drug accumulation in CD-1 mouse liver assessed as fold change in drug uptake at 10 mg/kg,po measured at 0.083 to 24 hrs post administration by LC-MS/MS analysis; format: ADME, organism-based; conditions: in vivo, time 0.083-24 hrs
[19] = Apparent volume of distribution at steady state in CD-1 mouse at 2 mg/kg,iv measured at 0.083 to 24 hrs post administration by LC-MS/MS analysis; format: ADME, organism-based; conditions: in vivo, time 0.083-24 hrs, read-out: Vdss(app)
[20] = Cmax in CD-1 mouse at 2 mg/kg,iv measured at 0.083 to 24 hrs post administration by LC-MS/MS analysis; format: ADME, organism-based; conditions: in vivo, time 0.083-24 hrs
[21] = Apparent volume of distribution at steady state in Sprague-Dawley rat at 2 mg/kg,iv measured at 0.083 to 24 hrs post administration by LC-MS/MS analysis; format: ADME, organism-based; conditions: in vivo, time 0.083-24 hrs, read-out: Vdss(app)
[22] = Half life in CD-1 mouse at 2 mg/kg,iv measured at 0.083 to 24 hrs post administration by LC-MS/MS analysis; format: ADME, organism-based; conditions: in vivo, time 0.083-24 hrs
[23] = Drug accumulation in Sprague-Dawley rat plasma assessed as fold change in drug uptake at 10 mg/kg,po measured at 0.083 to 24 hrs post administration by LC-MS/MS analysis; format: ADME, organism-based; conditions: in vivo, time 0.083-24 hrs
[24] = AUCinfinity in Sprague-Dawley rat at 2 mg/kg,iv measured at 0.083 to 24 hrs post administration by LC-MS/MS analysis; format: ADME, organism-based; conditions: in vivo, iv, 2 mg/kg, time 0.083-24 hrs
[25] = AUCinfinity in CD-1 mouse at 2 mg/kg,iv measured at 0.083 to 24 hrs post administration by LC-MS/MS analysis; format: ADME, organism-based; conditions: in vivo, time 0.083-24 hrs
[26] = Drug accumulation in CD-1 mouse plasma assessed as fold change in drug uptake at 10 mg/kg,po measured at 0.083 to 24 hrs post administration by LC-MS/MS analysis; format: ADME, organism-based; conditions: in vivo, time 0.083-24 hrs
[27] = Drug accumulation in Sprague-Dawley rat liver assessed as fold change in drug uptake at 10 mg/kg,po measured at 0.083 to 24 hrs post administration by LC-MS/MS analysis; format: ADME, organism-based; conditions: in vivo, time 0.083-24 hrs
[28] = Cmax in Sprague-Dawley rat at 2 mg/kg,iv measured at 0.083 to 24 hrs post administration by LC-MS/MS analysis; format: ADME, organism-based; conditions: in vivo, time 0.083-24 hrs
[29] = Half life in Sprague-Dawley rat at 2 mg/kg,iv measured at 0.083 to 24 hrs post administration by LC-MS/MS analysis; format: ADME, organism-based; conditions: in vivo, time 0.083-24 hrs

SMILES: CC(C)[C@@H]1COc2cc(OCCCN3CCOCC3)c(Cl)cc2-c2cc(=O)c(C(=O)O)cn21
- CC50 (HepG2 2.2.15): > 50000 nM
- microsomal CLint at 0.3 µM [1]: 1 µL/min/mg
- EC50 (Hepatitis B virus): 140 nM

SMILES: CC(C)C1Cc2sccc2-c2cc(=O)c(C(=O)O)cn21 (configuration not stated)
- CC50 (HepG2 2.2.15): > 50000 nM
- EC50 (Hepatitis B virus): 2400 nM

SMILES: COCCCCOc1cc2c(cc1Cl)-c1cc(=O)c(C(=O)O)cn1[C@H](C(C)C)CO2
- CC50 (HepG2 2.2.15): 43000 nM
- microsomal CLint at 0.3 µM [1]: 1 µL/min/mg
- EC50 (Hepatitis B virus): 16 nM

SMILES: COc1cccc(Cn2cc(C(C)C)n3cc(C(=O)O)c(=O)cc3c2=O)c1
- EC50 (Hepatitis B virus): 5000 nM

SMILES: COc1cc2c(nc1OC)-c1cc(=O)c(C(=O)O)cn1[C@H](C(C)C)C2
- CC50 (HepG2 2.2.15): > 50000 nM
- EC50 (Hepatitis B virus): 7 nM

SMILES: COCCCOc1cc2c([nH]c1=O)-c1cc(=O)c(C(=O)O)cn1[C@H](C(C)C)C2
- CC50 (HepG2 2.2.15): > 50000 nM
- EC50 (Hepatitis B virus): 450 nM

SMILES: COCCCOc1cc2c(nc1OC)-c1cc(=O)c(C(=O)O)cn1[C@@H](C(C)C)C2
- CC50 (HepG2 2.2.15): > 50000 nM
- EC50 (Hepatitis B virus): 950 nM

SMILES: CCc1cc2c(cc1OCCCOC)OC[C@@H](C(C)C)n1cc(C(=O)O)c(=O)cc1-2
- Tmax [2]: 3.3 h
- CC50 (HepG2 2.2.15): 33000 nM
- Ct [3]: 47 ng/g
- Vdss(app) [4]: 1.1 L/kg
- Ct [5]: 5 ng/g
- half-life [6]: 0.8 h
- t1/2 [7]: 2.7 h
- Cmax ([8]; po, 10 mg/kg): 351 ng/mL
- clearance [9]: 21 mL/min/kg
- AUC [10]: 2860 ng·h/mL
- microsomal CLint at 0.3 µM [1]: 10 µL/min/mg
- AUC(0-inf) [11]: 7080 ng·h/mL
- Tmax [12]: 2.4 h
- EC50 (Hepatitis B virus): 6 nM
- Vdss(app) [13]: 0.9 L/kg
- bioavailability [14]: 91%
- Cmax [15]: 844 ng/mL
- F [16]: 24%

SMILES: COc1cc2c(cn1)-c1cc(=O)c(C(=O)O)cn1C(C(C)C)C2 (configuration not stated)
- CC50 (HepG2 2.2.15): > 50000 nM
- EC50 (Hepatitis B virus): 960 nM

Continued by falling EC50 (Hepatitis B virus), values first:

- EC50 (Hepatitis B virus): 3800 nM
SMILES: COc1nc2c(s1)CC(C(C)C)n1cc(C(=O)O)c(=O)cc1-2 (configuration not stated)
- CC50 (HepG2 2.2.15): > 50000 nM

- EC50 (Hepatitis B virus): 780 nM
SMILES: COCCOc1cc2c(cc1Cl)-c1cc(=O)c(C(=O)O)cn1[C@@H](C(C)C)CO2
- CC50 (HepG2 2.2.15): > 50000 nM

- EC50 (Hepatitis B virus): 53 nM
SMILES: COCCOc1cc2c(cc1Cl)-c1cc(=O)c(C(=O)O)cn1[C@H](C(C)C)CO2
- CC50 (HepG2 2.2.15): > 50000 nM

- EC50 (Hepatitis B virus): 14 nM
SMILES: COc1cc2c(nc1OC)-c1cc(=O)c(C(=O)O)cn1C(C(C)C)C2 (configuration not stated)
- CC50 (HepG2 2.2.15): > 50000 nM

- EC50 (Hepatitis B virus): 7 nM
SMILES: COc1nc2c(cc1OCCCO)C[C@@H](C(C)C)n1cc(C(=O)O)c(=O)cc1-2
- CC50 (HepG2 2.2.15): > 50000 nM

- Tmax [2]: 3.1 h
- Ct [3]: 20 ng/g
- Vdss(app) [4]: 0.8 L/kg
- Ct [5]: 575 ng/g
- half-life [6]: 0.9 h
- t1/2 [7]: 1 h
- Cmax ([8]; po, 10 mg/kg): 488 ng/mL
- clearance [9]: 14 mL/min/kg
- AUC [10]: 3950 ng·h/mL
- microsomal CLint at 0.3 µM [1]: 1 µL/min/mg
- AUC(0-inf) [11]: 8410 ng·h/mL
- Tmax [12]: 4.8 h
- EC50 (Hepatitis B virus): 6 nM
- Vdss(app) [13]: 0.3 L/kg
- bioavailability [14]: 69%
- Cmax [15]: 914 ng/mL
- F [16]: 13%
SMILES: COCCCOc1cc2c(cc1C1CC1)-c1cc(=O)c(C(=O)O)cn1[C@H](C(C)C)CO2
- CC50 (HepG2 2.2.15): 42000 nM

- clearance [17]: 40 mL/min/kg
- fold change (FC) [18]: 41
- Vd [19]: 4 L/kg
- Cmax [20]: 834 ng/mL
- Vd [21]: 3.1 L/kg
- half-life [22]: 1.7 h
- half-life [6]: 3.7 h
- fold change (FC) [23]: 7.4
- half-life ([7]; Sprague-Dawley): 5.2 h
- Cmax ([8]; Sprague-Dawley, read-out: Cmax): 274 ng/mL
- clearance [9]: 29 mL/min/kg
- AUC [10]: 1666 ng·h/mL
- AUC(0-inf) [11]: 4360 ng·h/mL
- AUC [24]: 1199 ng·h/mL
- EC50 (Hepatitis B virus): 1 nM
- AUC(0-inf) [25]: 914 ng·h/mL
- bioavailability [14]: 92%
- fold change (FC) [26]: 4
- fold change (FC) [27]: 35
- Cmax [15]: 653 ng/mL
- Cmax [28]: 1680 ng/mL
- F [16]: 56%
- half-life [29]: 2.9 h
SMILES: COCCCOc1cc2c(nc1OC)-c1cc(=O)c(C(=O)O)cn1[C@](C)(C(C)(C)C)C2
- CC50 (HepG2 2.2.15): 41000 nM
